Source: PubChem BioAssay AID212 (DTP/NCI, 2004)
Values joined by “and” are separate entries in the source; they are usually repeats but may differ in a detail not shown here. Equal entries are not always repeated. Results filed as inconclusive are left out.

System: BDF1 mice, colon carcinoma 38 sc, T/C %
Experiment: NCI In Vivo Anticancer Drug Screen. Data for tumor model Colon Carcinoma 38 (subcutaneous) in B6D2F1 (BDF1) mice
Settings: endpoint: median tumor weight (est.), higher = larger tumour
In short: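 Ratio of survival or tumor size, compound-treated animals relative to vehicle controls, in tumor-bearing mice.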

[1] = dose: 25.0 mg/kg/injection, schedule: Q07DX002 (ip), vehicle: saline
[2] = dose: 50.0 mg/kg/injection, schedule: Q07DX002 (ip), vehicle: saline
[3] = dose: 6.25 mg/kg/injection, schedule: Q07DX002 (ip), vehicle: saline with Tween-80
[4] = dose: 12.5 mg/kg/injection, schedule: Q07DX002 (ip), vehicle: saline with Tween-80
[5] = dose: 25.0 mg/kg/injection, schedule: Q07DX002 (ip), vehicle: saline with Tween-80
[6] = dose: 100.0 mg/kg/injection, schedule: Q07DX002 (ip), vehicle: saline with Tween-80
[7] = dose: 50.0 mg/kg/injection, schedule: Q07DX002 (ip), vehicle: saline with Tween-80
[8] = dose: 200.0 mg/kg/injection, schedule: Q07DX002 (ip), vehicle: saline with Tween-80
[9] = dose: 400.0 mg/kg/injection, schedule: Q07DX002 (ip), vehicle: saline with Tween-80

SMILES: N=c1ccn2c(n1)OC1C(O)C(CO)OC12 (configuration not stated)
- T/C [1]: 84 % of control
- T/C [2]: 105 % of control
- T/C (dose: 50.0 mg/kg/injection, schedule: Q07DX003 (ip), vehicle: suspension in saline): 94 % of control
- T/C (dose: 100.0 mg/kg/injection, schedule: Q07DX003 (ip), vehicle: suspension in saline): 73 % of control
- T/C (dose: 200.0 mg/kg/injection, schedule: Q07DX003 (ip), vehicle: suspension in saline): 66 % of control
- T/C (dose: 400.0 mg/kg/injection, schedule: Q07DX003 (ip), vehicle: suspension in saline): 51 % of control
- T/C (dose: 800.0 mg/kg/injection, schedule: Q07DX003 (ip), vehicle: suspension in saline): 20 % of control
- T/C (dose: 1600.0 mg/kg/injection, schedule: Q07DX002 (ip), vehicle: saline): 31 % of control
- T/C (dose: 1600.0 mg/kg/injection, schedule: Q07DX003 (ip), vehicle: suspension in saline): 19 % of control

SMILES: C/C(=N/NC(N)=S)c1ccc2ccccc2c1
- T/C [3]: 111 % of control
- T/C [4]: 63 % of control
- T/C [5]: 70 % of control and 80 % of control
- T/C [6]: 31 % of control and 48 % of control

SMILES: Nc1ncnc2c1ncn2C1C=C(CO)C(O)C1O (configuration not stated)
- T/C (dose: 1.0 mg/kg/injection, schedule: Q07DX002 (ip), vehicle: saline): 74 % of control and 84 % of control
- T/C (dose: 2.0 mg/kg/injection, schedule: Q07DX002 (ip), vehicle: saline): 93 % of control
- T/C (dose: 8.0 mg/kg/injection, schedule: Q07DX002 (ip), vehicle: saline): 107 % of control

SMILES: COc1ccc(C2C(=O)c3ccc(OC)cc3OC2c2ccccc2)cc1 (configuration not stated)
- T/C (dose: 25.0 mg/kg/injection, schedule: Q07DX002 (ip), vehicle: other): 84 % of control
- T/C (dose: 50.0 mg/kg/injection, schedule: Q07DX002 (ip), vehicle: other): 56 % of control
- T/C (dose: 100.0 mg/kg/injection, schedule: Q07DX002 (ip), vehicle: other): 47 % of control
- T/C (dose: 200.0 mg/kg/injection, schedule: Q07DX002 (ip), vehicle: other): 50 % of control
- T/C (dose: 400.0 mg/kg/injection, schedule: Q07DX002 (ip), vehicle: other): 61 % of control

SMILES: Nc1nc2c(ncn2C2OC(CO)C(O)C2O)c(=O)[nH]1 (configuration not stated)
- T/C (dose: 100.0 mg/kg/injection, schedule: Q07DX002 (ip), vehicle: suspension in saline): 100 % of control
- T/C (dose: 200.0 mg/kg/injection, schedule: Q07DX002 (ip), vehicle: suspension in saline): 117 % of control
- T/C (dose: 400.0 mg/kg/injection, schedule: Q07DX002 (ip), vehicle: suspension in saline): 94 % of control
- T/C (dose: 800.0 mg/kg/injection, schedule: Q07DX002 (ip), vehicle: suspension in saline): 105 % of control
- T/C (dose: 1600.0 mg/kg/injection, schedule: Q07DX002 (ip), vehicle: suspension in saline): 90 % of control

SMILES: O=C(O)Cc1cccc2c(=O)c(-c3ccccc3)c(-c3ccccc3)oc12
- T/C (dose: 25.0 mg/kg/injection, schedule: Q07DX002 (ip), vehicle: Klucel (hydroxypropylcellulose) (HPC)): 90 % of control
- T/C (dose: 50.0 mg/kg/injection, schedule: Q07DX002 (ip), vehicle: Klucel (hydroxypropylcellulose) (HPC)): 92 % of control

SMILES: CCCCOC(=O)/C=C(\Br)C(=O)OCCCC
- T/C [5]: 76 % of control and 98 % of control
- T/C [7]: 71 % of control and 85 % of control
- T/C [6]: 84 % of control and 91 % of control
- T/C [8]: 81 % of control and 85 % of control
- T/C [9]: 69 % of control

SMILES: Cc1c(CNc2ccc(C(=O)NC(CC(=O)O)C(=O)O)cc2)ccc2nc(N)nc(N)c12 (configuration not stated)
- T/C (dose: 1.56 mg/kg/injection, schedule: Q07DX002 (ip), vehicle: saline with Tween-80): 86 % of control
- T/C (dose: 1.56 mg/kg/injection, schedule: Q07DX002 (ip), vehicle: saline): 122 % of control
- T/C (dose: 3.12 mg/kg/injection, schedule: Q07DX002 (ip), vehicle: saline with Tween-80): 87 % of control
- T/C (dose: 3.12 mg/kg/injection, schedule: Q07DX002 (ip), vehicle: saline): 96 % of control
- T/C [3]: 35 % of control
- T/C (dose: 6.25 mg/kg/injection, schedule: Q07DX002 (ip), vehicle: saline): 48 % of control
- T/C (dose: 12.5 mg/kg/injection, schedule: Q07DX002 (ip), vehicle: saline): 32 % of control

SMILES: Cc1cc(=O)c2cccc(CC(=O)O)c2o1
- T/C (dose: 100.0 mg/kg/injection, schedule: Q07DX002 (ip), vehicle: Klucel (hydroxypropylcellulose) (HPC)): 119 % of control
- T/C (dose: 200.0 mg/kg/injection, schedule: Q07DX002 (ip), vehicle: Klucel (hydroxypropylcellulose) (HPC)): 114 % of control
- T/C (dose: 400.0 mg/kg/injection, schedule: Q07DX002 (ip), vehicle: Klucel (hydroxypropylcellulose) (HPC)): 76 % of control

SMILES: CCOC(=O)C(CC(C)C)NC(=O)C(Cc1ccc(N(CCCl)CCCl)cc1)NC(C)=O (configuration not stated)
- T/C (dose: 32.0 mg/kg/injection, schedule: Q07DX002 (ip), vehicle: saline with Tween-80): 53 % of control
- T/C (dose: 32.0 mg/kg/injection, schedule: Q07DX003 (ip), vehicle: saline with Tween-80): 76 % of control
- T/C (dose: 64.0 mg/kg/injection, schedule: Q07DX002 (ip), vehicle: saline with Tween-80): 36 % of control
- T/C (dose: 64.0 mg/kg/injection, schedule: Q07DX003 (ip), vehicle: saline with Tween-80): 66 % of control
- T/C (dose: 128.0 mg/kg/injection, schedule: Q07DX003 (ip), vehicle: saline with Tween-80): 82 % of control

SMILES: CC(=O)CC(c1ccccc1)c1c(O)c2ccccc2oc1=O (configuration not stated)
- T/C (dose: 0.01 mg/kg/injection, schedule: Q07DX002 (ip), vehicle: Klucel (hydroxypropylcellulose) (HPC)): 96 % of control
- T/C (dose: 0.02 mg/kg/injection, schedule: Q07DX002 (ip), vehicle: Klucel (hydroxypropylcellulose) (HPC)): 119 % of control
- T/C (dose: 0.05 mg/kg/injection, schedule: Q07DX002 (ip), vehicle: Klucel (hydroxypropylcellulose) (HPC)): 100 % of control
- T/C (dose: 0.1 mg/kg/injection, schedule: Q07DX002 (ip), vehicle: Klucel (hydroxypropylcellulose) (HPC)): 95 % of control
- T/C (dose: 0.2 mg/kg/injection, schedule: Q07DX002 (ip), vehicle: Klucel (hydroxypropylcellulose) (HPC)): 86 % of control
- T/C (dose: 0.22 mg/kg/injection, schedule: Q07DX002 (ip), vehicle: saline): 115 % of control
- T/C (dose: 0.45 mg/kg/injection, schedule: Q07DX002 (ip), vehicle: saline with Tween-80): 91 % of control
- T/C (dose: 0.45 mg/kg/injection, schedule: Q07DX002 (ip), vehicle: saline): 96 % of control
- T/C (dose: 0.9 mg/kg/injection, schedule: Q07DX002 (ip), vehicle: saline with Tween-80): 110 % of control
- T/C (dose: 0.9 mg/kg/injection, schedule: Q07DX002 (ip), vehicle: saline): 88 % of control
- T/C (dose: 1.8 mg/kg/injection, schedule: Q07DX002 (ip), vehicle: saline): 72 % of control
- T/C (dose: 3.6 mg/kg/injection, schedule: Q07DX002 (ip), vehicle: saline): 67 % of control

SMILES: Cc1c2cc(Cl)c3ccccc3c2c[n+]2ccccc12
- T/C [4]: 94 % of control and 102 % of control
- T/C [5]: 116 % of control
- T/C [7]: 108 % of control and 111 % of control
- T/C [6]: 88 % of control and 98 % of control
- T/C [8]: 99 % of control
- T/C [9]: 120 % of control

SMILES: Nc1ncnc2c(C3OC(CO)C(O)C3O)[nH]nc12 (configuration not stated)
- T/C (dose: 15.0 mg/kg/injection, schedule: Q07DX002 (ip), vehicle: suspension in saline): 193 % of control
- T/C (dose: 30.0 mg/kg/injection, schedule: Q07DX002 (ip), vehicle: suspension in saline): 201 % of control
- T/C (dose: 60.0 mg/kg/injection, schedule: Q07DX002 (ip), vehicle: suspension in saline): 168 % of control
- T/C (dose: 120.0 mg/kg/injection, schedule: Q07DX002 (ip), vehicle: suspension in saline): 150 % of control

SMILES: O=Cc1ccc(O)c(O)c1
- T/C [1]: 65 % of control
- T/C [7]: 117 % of control
- T/C [2]: 85 % of control
- T/C [6]: 91 % of control
- T/C (dose: 100.0 mg/kg/injection, schedule: Q07DX002 (ip), vehicle: saline): 63 % of control
- T/C [8]: 108 % of control
- T/C (dose: 200.0 mg/kg/injection, schedule: Q07DX002 (ip), vehicle: saline): 97 % of control
- T/C [9]: 113 % of control
- T/C (dose: 800.0 mg/kg/injection, schedule: Q07DX002 (ip), vehicle: saline): 88 % of control

SMILES: NC(CCl)=NCC12CC3CC(CC(C3)C1)C2
- T/C (dose: 6.25 mg/kg/injection, schedule: Q07DX003 (ip), vehicle: Klucel (hydroxypropylcellulose) (HPC)): 72 % of control
- T/C (dose: 25.0 mg/kg/injection, schedule: Q07DX003 (ip), vehicle: Klucel (hydroxypropylcellulose) (HPC)): 39 % of control
- T/C (dose: 100.0 mg/kg/injection, schedule: Q07DX003 (ip), vehicle: Klucel (hydroxypropylcellulose) (HPC)): 94 % of control
